Measured values reported in PubChem BioAssay (NCI).
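These data come from cells grown in 96-well plates and exposed to compound for 48 hours at five concentrations. GI50: concentration for 50% inhibition of growth. TGI marks complete inhibition of growth.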

Experiments:
Test in all cases: NCI anticancer screen, dose series, 48 h
HL-60(TB) leukemia = tested on: HL-60(TB) leukemia
LOX IMVI melanoma = tested on: LOX IMVI melanoma
NCI-H460 lung = tested on: NCI-H460 lung
SK-MEL-5 melanoma = tested on: SK-MEL-5 melanoma
SK-OV-3 ovarian = tested on: SK-OV-3 ovarian
U251 CNS = tested on: U251 CNS
UACC-62 melanoma = tested on: UACC-62 melanoma
UO-31 renal = tested on: UO-31 renal
MCF7 breast = tested on: MCF7 breast
NCI/ADR-RES ovarian = tested on: NCI/ADR-RES ovarian

| SMILES | TGI (HL-60(TB) leukemia) [µM] | TGI (LOX IMVI melanoma) [µM] | TGI (NCI-H460 lung) [µM] | TGI (SK-MEL-5 melanoma) [µM] | TGI (SK-OV-3 ovarian) [µM] | TGI (U251 CNS) [µM] | TGI (UACC-62 melanoma) [µM] | TGI (UO-31 renal) [µM] | GI50 (HL-60(TB) leukemia) [nM] | GI50 (LOX IMVI melanoma) [nM] | GI50 (MCF7 breast) [µM] | TGI (MCF7 breast) [µM] | GI50 (NCI-H460 lung) [µM] | GI50 (NCI/ADR-RES ovarian) [µM] | TGI (NCI/ADR-RES ovarian) [µM] | GI50 (SK-MEL-5 melanoma) [µM] | GI50 (U251 CNS) [µM] | GI50 (UACC-62 melanoma) [µM] | GI50 (UO-31 renal) [µM] | GI50 (SK-OV-3 ovarian) [µM] |
| --- | --- | --- | --- | --- | --- | --- | --- | --- | --- | --- | --- | --- | --- | --- | --- | --- | --- | --- | --- | --- |
| O=C(/C(=C/c1ccccc1)c1ccccc1)N1c2ccccc2CC1c1c[nH]c2ccccc12 (stereo not given) | > 100 | > 100 | > 100 | > 100 | > 100 | > 100 | > 100 | > 100 |  |  |  |  |  |  |  |  |  |  |  |  |
| c1ccc(C2[C@@H]3CCCc4ccccc4C3=NN2c2ccccc2)cc1 (stereo not given in full) | > 100 | > 100 | > 100 | 47.1 |  | > 100 |  | > 100 |  |  |  |  |  |  |  |  |  |  |  |  |
| CCOC(=O)/N=c1/nc(N(C)C)ss1 | > 100 |  | > 100 | > 100 | > 100 | > 100 | > 100 | > 100 |  |  |  |  |  |  |  |  |  |  |  |  |
| COC(=O)C1CC(C(=O)OC)c2nc3cc(C)c(C)cc3nc21 (stereo not given) | > 100 | > 100 | > 100 | > 100 | > 100 | > 100 | > 100 | > 100 |  |  |  |  |  |  |  |  |  |  |  |  |
| CN1CCN(CCOc2ccc(-c3cnc4c(-c5ccc(F)cc5)cnn4c3)cc2)CC1 | 4.47 | 3.25 | 3.06 | 3.04 |  | 2.94 | 3.36 | 2.93 | 2090 | 1760 | 1.48 | 3.05 | 1.54 | 2.2 | 4.88 | 1.64 | 1.39 | 1.78 | 1.31 |  |
| Cc1ccc(S(=O)OC23CC4CC(CC(C4)C2)C3)cc1 (stereo not given) | 44.3 | > 100 | > 100 | > 100 | > 100 | > 100 | > 100 | > 100 |  |  |  |  |  |  |  |  |  |  |  |  |
| CN(C)CCNc1nc(-c2cccs2)cc(-c2cccs2)n1 |  | 22.7 | 18.3 | 29.6 |  | 24.4 | 37.4 | 23.6 |  |  |  |  |  |  |  |  |  |  |  |  |
| COc1ccc(C(=O)O/N=C2/CCC/C2=C\c2ccccc2)cc1 | > 100 | > 100 | > 100 | > 100 | > 100 | > 100 | > 100 | > 100 |  |  |  |  |  |  |  |  |  |  |  |  |
| CCOC(=S)SCN1C(=O)c2ccccc2S1(=O)=O |  | 31.9 | > 100 | 24.4 | > 100 | 37.3 | 38 | 29.4 |  | 17100 | 44.1 | > 100 | 45.4 | 14.1 | 50.8 | 11.4 | 18.7 | 20 | 14.3 | 32.1 |
| O=C(NCCCCOCC#Cc1ccccc1C#CCS(=O)(=O)c1ccccc1)c1cc2ccccc2[nH]1 |  | 4.8 | > 50 | 16.3 | > 50 | 22 | 16.6 | 11.8 |  | 1580 | 8.91 | > 26.1 | 14.4 | 7.99 | 25 | 7.86 | 9.64 | 8.29 | 4.05 | 19.5 |
